Experimental data taken from patent US10081646B2, “Heterobicyclic sphingosine 1-phosphate analogs” (BIOGEN MA INC., priority 2008, dated 2018).

The compounds below were run on circulating lymphocytes (assay: Lymphopenia assay: measurement of circulating lymphocytes after oral gavage). Conditions: Mus musculus, Lymphocyte, po, mice, oral gavage 0.5 and 5 mg/kg in 30% HPCD, blood 5 and 24 hours after administration; read-out: Lymphopenia (ED50 mg/kg).
Type: in vivo, Mice (C57bl/6 male)
Description: Measurement of circulating lymphocytes: Compounds were dissolved in 30% HPCD. Mice (C57bl/6 male, 6-10 week-old) were administered 0.5 and 5 mg/kg of a compound via oral gavage. 30% HPCD was included as a negative control.
Blood was collected from the retro-orbital sinus 5 and 24 hours after drug administration under short isoflurane anesthesia. Whole blood samples were subjected to hematology analysis. Peripheral lymphocyte counts were determined using an automated analyzer (HEMAVET™ 3700). Three mice were used to assess the lymphocyte depletion activity of each compound screened.

**Q.** With `CC(N)(CO)c1ccc2nc(O[C@H]3CC[C@H](C(C)(C)C)CC3)ccc2c1` (relative stereo) [Example 78, 2-amino-2-(2-(trans-4-tert-butylcyclohexyloxy)quinolin-6-yl)propan-1-ol] as the compound, how does the ED50 read?
**A.** Its ED50 is > 5 mg/kg.

**Q.** `CC(C)(C)[C@H]1CC[C@H](Oc2ccc3cc([C@](C)(N)CO)ccc3n2)CC1` (single isomer, unassigned) [Example 79A] was tested. Which ED50 did it give?
**A.** The ED50 was > 5 mg/kg.

**Q.** How did the ED50 turn out when `CC(C)(C)[C@H]1CC[C@H](Oc2ccc3cc([C@@](C)(N)CO)ccc3n2)CC1` (single isomer, unassigned) [Example 79] was run?
**A.** The ED50 was > 5 mg/kg.

**Q.** `CCCCCCCOc1ccc2nc(C(C)(N)CO)ccc2c1` (stereo not shown) [Example 38, 2-amino-2-(6-(heptyloxy)quinolin-2-yl)propan-1-ol] was tested. Which ED50 did it give?
**A.** The ED50 was 0.5 to 5 mg/kg.

**Q.** `CCCCCCCOc1ccc2nc([C@@](C)(N)CO)ncc2c1` [Example 50, (R)-2-Amino-2-(6-heptyloxyquinazolin-2-yl)propan-1-ol] was tested. Which ED50 did it give?
**A.** Its ED50 is 0.5 to 5 mg/kg.

**Q.** With `CC(C)(C)[C@H]1CC[C@H](Oc2ccc3nc([C@@](C)(N)CO)ncc3c2C(F)(F)F)CC1` [Example 61, (R)-2-Amino-2-(6-(trans-4-tert-butylcyclohexyloxy)-5-(trifluoromethyl)quinazolin-2-yl)propan-1-ol] as the compound, how does the ED50 read?
**A.** Its ED50 is 0.5 to 5 mg/kg.

**Q.** Which ED50 does the source give for `CC(C)(C)[C@H]1CC[C@H](Oc2ccc3c(c2C(F)(F)F)CC[C@H]([C@@](C)(N)CO)C3)CC1` [Example 71, (R)-2-amino-2-((S)-6-(trans-4-tert-butylcyclohexyloxy)-5-(trifluoromethyl)-1,2,3,4-tetrahydronaphthalen-2-yl)propan-1-ol] here?
**A.** Its ED50 is < 0.5 mg/kg.

**Q.** Which ED50 does the source give for `CC(C)(C)[C@H]1CC[C@H](Oc2cc3c(cc2C(F)(F)F)C[C@@H]([C@@](C)(N)CO)CC3)CC1` [Example 71A, (R)-2-amino-2-((S)-6-(trans-4-tert-butylcyclohexyloxy)-7-(trifluoromethyl)-1,2,3,4-tetrahydronaphthalen-2-yl)propan-1-ol] here?
**A.** Its ED50 is > 5 mg/kg.

**Q.** With `CCCCCCCOc1ccc2cc(C(C)(N)CO)cnc2c1` (stereo not shown) [Example 91, 2-amino-2-(7-(heptyloxy)quinolin-3-yl)propan-1-ol] as the compound, how does the ED50 read?
**A.** Its ED50 is 0.5 to 5 mg/kg.

**Q.** With `CCCCCCCCc1ccc2nc(C(C)(N)CO)sc2c1` (stereo not shown) [Example 99, 2-amino-2-(6-octylbenzo[d]thiazol-2-yl)propan-1-ol] as the compound, how does the ED50 read?
**A.** Its ED50 is > 5 mg/kg.

**Q.** With `CCCCCCCOc1ccc2cc(C(C)(N)CO)ccc2n1` (stereo not shown) [Example 103, 2-amino-2-(2-(heptyloxy)quinolin-6-yl)propan-1-ol] as the compound, how does the ED50 read?
**A.** Its ED50 is 0.5 to 5 mg/kg.

**Q.** `NC(CO)(CO)C1CCc2cc(Sc3cccc(OCc4ccccc4)c3)ccc2C1` (stereo not shown) [Example 113, 2-Amino-2-(6-(3-(benzyloxy)phenylthio)-1,2,3,4-tetrahydronaphthalen-2-yl)propane-1,3-diol] was tested. Which ED50 did it give?
**A.** Its ED50 is < 0.5 mg/kg.

Same assay, conditions: Mus musculus, Lymphocyte, po, read-out: Lymphopenia (ED50 mg/kg)

**Q.** `CC(N)(CO)c1ccc2c(C(F)(F)F)c(O[C@H]3CC[C@H](C(C)(C)C)CC3)ccc2n1` (relative stereo) [Example 21, 2-Amino-2-[6-(trans-4-tert-butyl-cyclohexyloxy)-5-trifluoromethyl-quinolin-2-yl]-propan-1-ol] was tested. Which ED50 did it give?
**A.** The ED50 was < 0.5 mg/kg.

Same assay, conditions: mice, oral gavage 0.5 and 5 mg/kg in 30% HPCD, blood 5 and 24 hours after administration

**Q.** How did the “Lymphopenia (ED50 mg/kg)” value turn out when `CC(N)(CO)c1ccc2cc(O[C@H]3CC[C@H](C(C)(C)C)CC3)ccc2n1` (relative stereo) [Example 18, 2-Amino-2-[6-(trans-4-tert-butyl-cyclohexyloxy)-quinolin-2-yl]-propan-1-ol] was run?
**A.** The value was 0.5 to 5 mg/kg.

**Q.** With `CC(N)(CO)c1ccc2cc(O[C@H]3CC[C@H](C(C)(C)C)CC3)ccc2n1` (relative stereo) [Example 23, 2-Amino-2-[6-(trans-4-tert-butyl-cyclohexyloxy)-quinolin-2-yl]-propan-1-ol] as the compound, how does the “Lymphopenia (ED50 mg/kg)” value read?
**A.** Its value is <0.5 mg/kg.

**Q.** `CC(N)(CO)c1ccc2cc(O[C@H]3CC[C@H](C(C)(C)C)CC3)ccc2n1` (relative stereo) [Example 24, 2-Amino-2-[6-(trans-4-tert-butyl-cyclohexyloxy)-quinolin-2-yl]-propan-1-ol] was tested. Which “Lymphopenia (ED50 mg/kg)” value did it give?
**A.** The value was >5 mg/kg.

**Q.** How did the “Lymphopenia (ED50 mg/kg)” value turn out when `CC(N)(CO)c1ccc2c(C(F)(F)F)c(O[C@H]3CC[C@H](C(C)(C)C)CC3)ccc2n1` (relative stereo) [Example 26, 2-Amino-2-[6-(trans-4-tert-butyl-cyclohexyloxy)-5-trifluoromethyl-quinolin-2-yl]-propan-1-ol] was run?
**A.** Its value is <0.5 mg/kg.

**Q.** Which “Lymphopenia (ED50 mg/kg)” value does the source give for `CC(N)(CO)c1ccc2c(C(F)(F)F)c(O[C@H]3CC[C@H](C(C)(C)C)CC3)ccc2n1` (relative stereo) [Example 27, 2-Amino-2-[6-(trans-4-tert-butyl-cyclohexyloxy)-5-trifluoromethyl-quinolin-2-yl]-propan-1-ol] here?
**A.** Its value is >5 mg/kg.

What follows are compounds tested against T1, human S1P3 receptor (Homo sapiens, UniProt Q99500) (assay: Calcium mobilization assay, recombinant CHEM cells expressing human S1P3). Conditions: FLIPR.
T1 construct: host or cells: recombinant CHEM cells
T1 sequence (Q99500 whole entry): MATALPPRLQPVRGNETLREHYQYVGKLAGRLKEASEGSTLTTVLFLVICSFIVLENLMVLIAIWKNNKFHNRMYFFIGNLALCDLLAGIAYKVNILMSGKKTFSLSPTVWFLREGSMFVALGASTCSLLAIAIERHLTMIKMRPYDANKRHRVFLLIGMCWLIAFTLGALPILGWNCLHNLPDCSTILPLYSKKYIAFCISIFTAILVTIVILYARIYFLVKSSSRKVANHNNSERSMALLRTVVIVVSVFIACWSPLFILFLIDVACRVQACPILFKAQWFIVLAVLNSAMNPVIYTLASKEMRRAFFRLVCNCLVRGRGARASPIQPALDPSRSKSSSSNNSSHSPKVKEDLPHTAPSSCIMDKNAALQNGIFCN
Type: cell-based
Description: Compounds that were not specific for the S1P1 receptor, can have activity for other S1P receptor subtypes, e.g., S1P2, S1P3, S1P4, or S1P5, and can cause undesirable side effects. Accordingly, compounds were tested to identify those that were specific for S1P1 activity and had little or no activity, or are antagonists of, S1P3 activity. Accordingly, the test compounds were tested in a calcium mobilization assay to determine agonist activity at either the human S1P1 or human S1P3 receptor, and antagonist activity only at the human S1P3 receptor. The procedure was essentially as described (with modifications described below) in Davis et al. (2005) Journal of Biological Chemistry, vol. 280, pp. 9833-9841, which is incorporated by reference in its entirety. Calcium mobilization assays were performed in recombinant CHEM cells expressing human S1P1 or S1P3 purchased from Millipore (Billerica, Mass.). To detect free intracellular calcium, S1P1 or S1P3 cells were loaded with FLIPR Calcium 4 dye from Molecular Devices (Sunnyvale, Calif.). Cells were imagined for calcium mobilization using a FLIPR^TETRA equipped with a 96-well dispense head.

**Q.** How did the S1P3 agonist activity turn out when `CCCCCCCCCCCCC/C=C/[C@@H](O)[C@@H](N)COP(=O)(O)O` [Example S1P, Sphingosine 1-phosphate] was run?
**A.** The S1P3 agonist activity was “full S1P3 agonist”.
